Experimental data reported in ChEMBL document CHEMBL1137529, “Syntheses and optimization of new GS39783 analogues as positive allosteric modulators of GABA B receptors” (Bioorg Med Chem Lett, 2007).

Assays:
GABA-B receptor = GABA-B receptor (Homo sapiens, UniProt O75899+Q9UBS5); assay: Activity at GABAB 1b/2 receptor expressed in CHO-K1 cells assessed as effect on GABA-induced [35S]GTP-gamma-S binding
[1] = Partition coefficient, log P of the compound; assay type: physicochemical; conditions: octanol/water
[2] = Solubility in water; assay type: physicochemical

Sequence of GABA-B receptor (Q9UBS5 whole entry): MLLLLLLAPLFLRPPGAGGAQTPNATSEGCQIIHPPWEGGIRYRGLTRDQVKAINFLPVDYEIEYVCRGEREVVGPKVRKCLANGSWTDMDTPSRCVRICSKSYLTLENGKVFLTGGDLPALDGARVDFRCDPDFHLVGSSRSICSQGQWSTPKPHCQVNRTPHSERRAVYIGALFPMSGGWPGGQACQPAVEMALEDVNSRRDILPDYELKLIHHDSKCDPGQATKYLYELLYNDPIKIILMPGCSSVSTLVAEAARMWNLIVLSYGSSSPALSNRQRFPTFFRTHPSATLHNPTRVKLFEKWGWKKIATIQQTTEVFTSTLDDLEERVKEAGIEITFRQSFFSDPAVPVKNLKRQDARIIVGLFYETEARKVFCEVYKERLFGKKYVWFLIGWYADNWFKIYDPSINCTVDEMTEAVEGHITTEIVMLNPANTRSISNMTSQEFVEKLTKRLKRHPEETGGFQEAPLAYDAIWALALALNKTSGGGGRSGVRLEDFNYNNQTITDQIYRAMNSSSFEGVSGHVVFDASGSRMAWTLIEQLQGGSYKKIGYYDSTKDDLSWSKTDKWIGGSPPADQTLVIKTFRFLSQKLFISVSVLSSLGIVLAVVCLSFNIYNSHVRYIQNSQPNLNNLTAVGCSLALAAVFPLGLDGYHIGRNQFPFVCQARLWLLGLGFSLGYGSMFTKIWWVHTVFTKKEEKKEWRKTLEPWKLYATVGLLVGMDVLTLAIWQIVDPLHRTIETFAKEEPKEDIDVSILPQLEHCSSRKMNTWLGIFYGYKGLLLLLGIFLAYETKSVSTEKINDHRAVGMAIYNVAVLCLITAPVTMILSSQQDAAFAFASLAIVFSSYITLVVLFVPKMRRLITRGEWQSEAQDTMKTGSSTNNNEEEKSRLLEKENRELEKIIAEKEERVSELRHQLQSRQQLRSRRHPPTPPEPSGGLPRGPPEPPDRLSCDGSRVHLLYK
Sequence of GABA-B receptor (O75899 whole entry): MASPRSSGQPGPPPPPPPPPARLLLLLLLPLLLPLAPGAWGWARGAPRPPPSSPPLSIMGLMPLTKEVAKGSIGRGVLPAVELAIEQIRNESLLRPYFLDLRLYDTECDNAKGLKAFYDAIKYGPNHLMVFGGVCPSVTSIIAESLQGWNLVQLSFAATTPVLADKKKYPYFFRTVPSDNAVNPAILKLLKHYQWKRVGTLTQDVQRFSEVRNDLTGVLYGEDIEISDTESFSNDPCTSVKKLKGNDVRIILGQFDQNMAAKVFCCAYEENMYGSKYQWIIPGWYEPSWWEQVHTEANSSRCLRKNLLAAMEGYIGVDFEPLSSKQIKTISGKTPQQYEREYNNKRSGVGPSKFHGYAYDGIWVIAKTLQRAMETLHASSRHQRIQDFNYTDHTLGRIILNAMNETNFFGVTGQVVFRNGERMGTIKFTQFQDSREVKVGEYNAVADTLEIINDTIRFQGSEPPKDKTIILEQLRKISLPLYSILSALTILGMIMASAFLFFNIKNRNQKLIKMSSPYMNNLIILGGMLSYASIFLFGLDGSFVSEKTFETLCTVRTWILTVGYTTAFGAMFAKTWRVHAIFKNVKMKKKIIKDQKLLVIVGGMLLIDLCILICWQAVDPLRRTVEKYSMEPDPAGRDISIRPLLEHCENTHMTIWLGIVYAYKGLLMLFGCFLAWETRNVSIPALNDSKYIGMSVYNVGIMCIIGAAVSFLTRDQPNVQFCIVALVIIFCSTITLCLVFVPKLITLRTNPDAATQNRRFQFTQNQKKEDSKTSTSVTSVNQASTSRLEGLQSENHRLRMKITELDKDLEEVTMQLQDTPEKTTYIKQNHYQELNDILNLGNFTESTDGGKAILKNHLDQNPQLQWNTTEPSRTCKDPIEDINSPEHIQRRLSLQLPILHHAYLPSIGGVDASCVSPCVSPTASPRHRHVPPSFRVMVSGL

Row | SMILES | EC50 (GABA-B receptor) [nM] | logP [1] | solubility [2] [µg/mL]
1 | Cc1ncc(-c2ccc(OC(F)(F)F)cc2)c(NC2CCCC2)n1 | 4570 | – | –
2 | Cc1ncc(-c2ccc(C(F)(F)F)cc2)c(NC2C3CC4CC(C3)CC2C4)n1 (configuration not stated) | – | > 5.9 | < 10
3 | COc1ncc(-c2ccc(C(F)(F)F)cc2)c(N[C@@H]2C[C@@H]3CC[C@H]2C3)n1 | 2040 | – | –
4 | Cc1ncc(-c2ccc(C(F)(F)F)cc2)c(NC2CCCCCC2)n1 | 1660 | – | –
5 | Cc1ncc(-c2ccc(C(F)(F)F)cc2)c(NC23CC4CC(CC(C4)C2)C3)n1 | – | > 5.9 | < 10
